In ChEMBL document CHEMBL5512617, “Tackling Influenza A virus by M2 ion channel blockers: Latest progress and limitations” (Eur J Med Chem, 2024):

Assays:
[1] = molecular target: Matrix protein 2 (Influenza A virus (A/Udorn/307/1972(H3N2)), UniProt P0DOF8, V27A)
[2] = system: Influenza A virus; conditions: mdck

Compound | IC50 [1] | EC50 [2]
NC1CCCC2(CCCCCC2)CC1 (stereo unspecified) | 11.3 µM | –
N=C(N)NC1CCC2(CC1)C1CC3CC(C1)CC2C3 (stereo unspecified) | 0.5 µM | > 30 µM
NC1CCCC2(CCCCC2)CC1 (stereo unspecified) | 68.1 µM | –
C1CCC2(CC1)CCNCC2 | > 200 µM | –
NC1CSC2(SC1)C1CC3CC(C1)CC2C3 (stereo unspecified) | 0.4 µM | 1 µM
NC1CCC2(CCCCCC2)CC1 | 28.1 µM | –
CC(N)C1CCC2(CCCCC2)CC1 (stereo unspecified) | 25.2 µM | –
NCC1CCC2(CCCCC2)CC1 | 31.1 µM | –
NC1CCC2(CC1)C1CC3CC(C1)CC2C3 (stereo unspecified) | – | 1.8 µM
